The species entered for assay [1] is Felis catus. Put plainly: Ratio of Chronotropic (C) EC50 to inotropic (I) EC50.
Assay [2] is filed under the species Felis catus. Kind of assay: The inotropic activity was assayed in vitro in cat papillary muscle. The assay is classed as functional, Muscle tissue.
The species entered for assay [3] is Felis catus. Put plainly: Chronotropic effects were assayed in vitro in the isolated right artium of the cat. The assay is classed as functional.
Assay [4] is filed under the species Felis catus. Put plainly: In vitro chronotropic effect in right artium of cat (Inactive). The assay is classed as functional.
Assay [5] is filed under the species Felis catus. Kind of assay: In vitro inotropic effect in cat papillary muscle (Inactive). The assay is classed as functional, Muscle tissue.
The test system of assay [6] is Canis familiaris. Kind of assay: Inotropic effect in the dogs with pentobarbtial-induced heart failure, id administration. The assay is classed as functional. The following applies: Canis lupus familiaris.
Assay [7] is filed under the species Felis catus. Put plainly: In vitro inotropic effect in cat papillary muscle. The assay is classed as functional.
Assay [8] is filed under the species Felis catus. Kind of assay: (§1) Ratio of Chronotropic (C) EC50 to inotropic (I) EC50. The assay is classed as functional.
Assay [9] deals with Canis familiaris. Kind of assay: Inotropic effect in dogs with pentobarbital-induced heart failure, iv administration. The assay is classed as functional. The settings on record: Canis lupus familiaris.
Assay [10] has as its system Canis familiaris. Put plainly: (§2) Reduced arterial blood pressure after Id administration in dogs with pentobarbital-induced heart failure. The assay is classed as functional. The settings on record: Canis lupus familiaris.
Assay [11] can be described thus: (§3) Inhibition of crude bovine cardiac phosphodiesterase. Set-up: species or system Bos taurus.
Assay [12] relates to Canis familiaris. Kind of assay: Inotropic effect in anesthetized dogs. The settings on record: Canis lupus familiaris. The assay is classed as functional.
Assay [13] deals with Canis familiaris. The description is as §2. The assay is classed as functional. The settings on record: Canis lupus familiaris. This is another data set of the same source.
Assay [14] in a line: (§4) Inhibition of bovine cardiac phosphodiesterase fraction III. Set-up: species or system Bos taurus.
For assay [15], the species on record is Canis familiaris. Put plainly: (§5) ED20/ED50 ratio (BP/ inotropic) of the compound. The assay is classed as functional, Canis lupus familiaris.
For assay [16], the species on record is Canis familiaris. Described as §5. The assay is classed as functional, Canis lupus familiaris. This is another data set of the same source.
Assay [17] relates to Canis familiaris. The assay is described as §2. The assay is classed as functional. The following applies: Canis lupus familiaris. This is another data set of the same source.
Assay [18] concerns Canis familiaris. The assay is described as §2. The assay is classed as functional. The following applies: Canis lupus familiaris. The source holds these as a separate data set.
For assay [19], the system named is Canis familiaris. Kind of assay: Inotropic effect in dogs with pentobarbitial-induced heart failure, iv administration. The assay is classed as functional. The settings on record: Canis lupus familiaris.
For assay [20], the species on record is Canis familiaris. The description is as §1. The assay is classed as functional, Canis lupus familiaris.
In assay [21] the target is Phosphodiesterase 3B (Bos taurus, UniProt E1BN64). Described as §4.
Chain of Phosphodiesterase 3B (E1BN64 whole entry): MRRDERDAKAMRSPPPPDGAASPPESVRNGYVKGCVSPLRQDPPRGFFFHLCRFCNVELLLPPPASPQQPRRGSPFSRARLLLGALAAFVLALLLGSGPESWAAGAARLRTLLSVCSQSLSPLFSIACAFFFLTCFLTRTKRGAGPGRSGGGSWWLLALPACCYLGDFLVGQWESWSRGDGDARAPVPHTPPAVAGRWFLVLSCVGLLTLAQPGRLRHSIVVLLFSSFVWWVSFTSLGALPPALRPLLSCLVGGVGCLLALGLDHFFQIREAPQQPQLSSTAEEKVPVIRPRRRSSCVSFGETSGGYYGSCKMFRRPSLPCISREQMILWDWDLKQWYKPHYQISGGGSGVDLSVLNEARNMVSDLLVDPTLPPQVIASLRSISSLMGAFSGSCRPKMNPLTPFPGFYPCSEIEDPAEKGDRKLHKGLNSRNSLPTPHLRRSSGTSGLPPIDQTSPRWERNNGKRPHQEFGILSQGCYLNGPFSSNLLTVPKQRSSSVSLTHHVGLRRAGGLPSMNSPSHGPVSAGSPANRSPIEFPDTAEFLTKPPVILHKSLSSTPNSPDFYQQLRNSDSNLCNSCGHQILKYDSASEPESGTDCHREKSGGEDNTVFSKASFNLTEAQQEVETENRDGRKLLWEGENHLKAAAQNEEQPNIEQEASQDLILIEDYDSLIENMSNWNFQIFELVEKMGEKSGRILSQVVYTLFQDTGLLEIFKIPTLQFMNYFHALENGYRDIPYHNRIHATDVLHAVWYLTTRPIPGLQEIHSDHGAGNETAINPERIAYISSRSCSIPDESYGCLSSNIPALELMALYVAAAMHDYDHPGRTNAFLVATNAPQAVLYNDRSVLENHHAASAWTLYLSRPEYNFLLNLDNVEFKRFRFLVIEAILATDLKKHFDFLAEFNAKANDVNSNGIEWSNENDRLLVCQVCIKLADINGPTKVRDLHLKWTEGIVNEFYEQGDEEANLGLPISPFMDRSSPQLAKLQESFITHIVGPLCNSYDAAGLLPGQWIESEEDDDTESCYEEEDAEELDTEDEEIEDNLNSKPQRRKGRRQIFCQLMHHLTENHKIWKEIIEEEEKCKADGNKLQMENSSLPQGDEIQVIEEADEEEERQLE
The nature of assay [22]: as §3. The assay is classed as functional, Bos taurus.
Assay [23] deals with Canis familiaris. Kind of assay: Inotropic effect in dogs with pentobarbtial-induced heart failure, iv administration. The assay is classed as functional. The settings on record: Canis lupus familiaris.
[24] abbreviates: Felis catus, Muscle tissue, read-out: EC50.

“And” between values parts separate entries of the source, which are not always exact repeats. Equal entries are not always repeated.

What is called ED50 is the dose that gives a 50% effect, or the effect in half of the subjects. Low readings indicate greater potency, high ones weaker potency. In general, IC50 refers to the concentration that gives 50% inhibition.

For the molecule `CCc1nc(O)c(C#N)c(NCc2cccnc2)n1`, the Ratio in assay [1] stood at 16. Moreover, the EC50 in [2] (setting [24]) worked out at 5.5 µM; in [3] (Felis catus, read-out: EC50) it was 86 µM.
As to `N#Cc1c(O)nc(Cc2ccccc2)nc1NCc1cccnc1`, the Ratio in assay [1] was found to be 14. The results for the EC50 in [2] (setting [24]) and in assay [3] were 72 µM and ~ 1000 uM l-1, respectively.
For `CNc1nc(C)nc(NCc2cccnc2)c1C#N`, the EC50 result in assay [4] and in [5] was “Not Active” in each case.
For `N#Cc1c(O)nc(O)nc1NCc1cccnc1`, the EC50 result in [4] and in assay [5] was “Not Active” throughout.
On to `Cc1nc(O)c(C#N)c(NCCc2cccnc2)n1`, for which, in [1], the Ratio is 1.3. For the same molecule, the EC50 in assay [2] is given as 230 uM l-1; in [3], 300 uM l-1.
On to `Cc1nc(O)c(Br)c(NCc2cccnc2)n1`, for which the ED50 in [6] came out at 0.022 mg/kg; in [9], 0.018 mg/kg; in assay [12] it was 0.012 mg/kg. Moreover, the figures for the EC50 in assay [7], in [2] (setting [24]) and in assay [3] were 2.5 µM, 3.9 µM and 380 uM l-1, respectively. In addition, the Ratio in [8] is 97; in assay [15], 2.3 and 4.5. The results for the ED20 in assay [10] and in assay [13] were 0.041 mg/kg and 0.1 mg/kg, respectively. Further, the IC50 in assay [11] stood at 35 µM; in [14], 15 µM.
Consider `CCNc1nc(C)nc(O)c1Br`, for which the ED50 in [6] was 0.03 mg/kg; in assay [9] it was 0.01 mg/kg; in assay [12], 0.01 mg/kg. Besides, the Ratio is on record as less than 0.3 in assay [16], 102 in [8] and 1.6 in assay [15]. In addition, the ED20 in assay [17] is 0.05 mg/kg; in assay [10], less than 0.003 mg/kg. Also, the EC50 in assay [2] (setting [24]) worked out at 4.1 µM; in assay [2] (read-out: EC50) it was 2.8 µM; in assay [3], 420 uM l-1. Moreover, in assay [14], the IC50 worked out at 38 µM.
Take `COc1nc(C)nc(NCc2cccnc2)c1C#N`: the EC50 entry in assay [4] and in assay [5] was “Not Active” each time.
With `Cc1nc(=O)c(C#N)c(NCc2cccnc2)[nH]1` [PELRINONE], the ED50 in assay [6] was 0.2 mg/kg; in assay [19], 0.033 mg/kg; in [12] it was 0.03 mg/kg. Further, the ED20 in [18] is greater than 3 mg/kg; in assay [10] it was 0.12 mg/kg. The EC50 in [7] amounted to 5 µM; in assay [2] (setting [24]) it was 5.9 µM; in assay [3], 212 uM l-1. Besides, the IC50 in assay [11] stood at 76 µM; in assay [14] it was 36 µM. For the same molecule, the Ratio in [20] is recorded as 36.
`Cc1nc(O)c(C(N)=O)c(NCc2cccnc2)n1`: the EC50 entry in assay [4] and in [5] was “Not Active” in each case.
In the case of `CSc1nc(C)nc(NCc2cccnc2)c1C#N`, the EC50 result in [4] and in [5] was “Not Active” in each case.
`Cc1nc(O)c(C#N)c(NCc2ccco2)n1`: the Ratio in assay [1] is on record as 8.8. Moreover, the EC50 in [2] (setting [24]) came to 10 µM; in assay [3] (Felis catus, read-out: EC50), 88 µM.
In the case of `CCNc1nc(C)nc(O)c1C#N`, the ED50 in assay [6] was found to be 0.06 mg/kg; in assay [19], 0.027 mg/kg. In addition, the Ratio in assay [16] was 1.4 and 1.2; in assay [1] it was 115. For the same molecule, the results for the EC50 in assay [2] (setting [24]) and in assay [3] were 2.6 µM and 300 uM l-1, respectively. For the same molecule, the ED20 in assay [10] was 0.37 mg/kg; in assay [13], 0.07 mg/kg.
Take `Cc1nc(O)c(C#N)c(NCCc2ccccc2)n1`: the ED50 in assay [6] amounted to 0.22 mg/kg; in assay [19] it was 0.07 mg/kg. Besides, the Ratio in assay [1] is listed as greater than 50. In addition, the values for the EC50 in assay [2] (setting [24]) and in [3] were 20 µM and greater than 1000 uM l-1, respectively. Besides, the ED20 in assay [10] worked out at 0.027 mg/kg; in [13] it was 0.3 mg/kg.
For `Cc1nc(S)c(C#N)c(NCc2cccnc2)n1`, the Ratio in assay [1] is 6. For the same molecule, the EC50 was 14 µM in [2] (setting [24]) and 80 µM in assay [3] (Felis catus, read-out: EC50).
As to `N#Cc1c(O)ncnc1NCc1cccnc1`, the EC50 result in assay [4] and in [5] was “Not Active” in each case.
For `CCNc1nc(C)nc(O)c1C(C)=O`, the EC50 entry in [4] and in assay [5] was “Not Active” in each case.
Turning to `Cc1nc(O)c(Cl)c(NCCc2ccccc2)n1`, in [1], the Ratio is on record as greater than 833. In addition, the EC50 is 1.2 µM in [2] (setting [24]) and greater than 1000 uM l-1 in [3].
Turning to `Cc1[nH]c(=O)c(C#N)cc1-c1ccncc1` [MILRINONE], the values for the ED50 in assay [6], in [9] and in [12] were 0.04 mg/kg, 0.016 mg/kg and 0.02 mg/kg, respectively. Besides, the Ratio is listed as 3 in [16], roughly 39 in [8] and 2.5 in assay [15]. The results for the EC50 in assay [7], in assay [2] (setting [24]) and in [3] were 6.5 µM, 7.7 µM and ~ 300 uM l-1, respectively. Further, the ED20 in [10] amounted to 0.048 mg/kg; in assay [13], 0.1 mg/kg. For the same molecule, the concentration for half-maximal inhibition (IC50) in assay [11] was found to be 192 µM; in assay [14], 28 µM.
As to `CC(C)(C)c1nc(O)c(C#N)c(NCc2cccnc2)n1`, in assay [1], the Ratio is 2. Also, the EC50 in assay [2] (setting [24]) came to 55 µM; in [3] it was 110 uM l-1.
For the molecule `Cc1nc(O)c(C#N)c(NCc2ccncc2)n1`, in assay [1], the Ratio is reported as 57. The results for the EC50 in [2] (setting [24]) and in assay [3] were 4.4 µM and 250 uM l-1, respectively.
With `CCCNc1nc(C)nc(O)c1C#N`, the Ratio in [1] is 9. Moreover, the EC50 in [2] (setting [24]) came out at 1.9 µM; in assay [3] (Felis catus, read-out: EC50), 17 µM.
Take `Cc1nc(Cl)c(C#N)c(NCc2cccnc2)n1`: the EC50 entry in [4] and in assay [5] was “Not Active” in each case.
`O=C1CCC(c2ccc(-n3ccnc3)cc2)=NN1` [IMAZODAN]: the IC50 in assay [21] amounted to 94 µM; in assay [22] it was 145 µM. Besides, in assay [2] (setting [24]), the EC50 worked out at 7 µM. Also, the ED50 in assay [12] is 0.08 mg/kg.
For `CCNc1nc(C)nc(O)c1[N+](=O)[O-]`, the Ratio in assay [1] is on record as 9. Moreover, the EC50 in assay [2] (setting [24]) was found to be 25 µM; in assay [3], 230 uM l-1.
The like results for `CSc1ccc(C(=O)c2[nH]c(=O)[nH]c2C)cc1` [ENOXIMONE] were, in that order, 2.2, 90 µM and 200 uM l-1.
The like results for `Cc1nc(O)c([N+](=O)[O-])c(NCc2cccnc2)n1` were, in that order, greater than 189, 5.3 µM and greater than 1000 uM l-1.
Turning to `Cc1nc(O)c(C#N)c(NCCc2ccncc2)n1`, in assay [1], the Ratio is listed as 61. Further, the results for the EC50 in assay [2] (setting [24]) and in [3] were 6.5 µM and 396 uM l-1, respectively.
For `Cc1nc(O)c(C#N)c(NCc2ccccn2)n1`, in that order: 4, 43 µM and 180 uM l-1.
With `Cc1nc(O)c(Br)c(NCCc2ccccc2)n1`, the figures for the ED50 in assay [6] and in assay [23] were greater than 1 mg/kg and 0.029 mg/kg, respectively. For the same molecule, in [1], the Ratio was greater than 164. Further, the EC50 was 6.1 µM in assay [2] (setting [24]) and greater than 1000 uM l-1 in assay [3]. Moreover, the values for the ED20 in assay [10] and in assay [13] were less than 0.01 mg/kg and greater than 1 mg/kg, respectively.
Turning to `Cc1nc(O)c(C#N)c(NCCc2ccccn2)n1`, in [1], the Ratio came out at 2. Besides, the EC50 in assay [2] (setting [24]) turned out to be 37 µM; in assay [3] (Felis catus, read-out: EC50), 71 µM.
For the molecule `N#Cc1c(O)nc(-c2ccccc2)nc1NCc1cccnc1`, the EC50 result in assay [4] and in [5] was “Not Active” each time.
With `CC(=O)c1c(O)nc(C)nc1NCc1cccnc1`, the EC50 result in [4] and in assay [5] was “Not Active” throughout.

For the origin of these results see ChEMBL document CHEMBL1124087, “Chemistry and positive inotropic effect of pelrinone and related derivatives. A novel class of 2-methylpyrimidones as inotropic agents” (J Med Chem, 1988).
